Measurements from PubChem BioAssay AID2060502 (Molecular Pharmacology Branch, DTP, NCI, 2025).

Test system: 885724-159-R-J1-PDC complex spheroid viability
Assay: Anticancer human tumor 885724-159-R-J1-PDC patient-derived pancreatic adenocarcinoma cell line growth inhibition [GQUAD]
Conditions: for IC50: curve of first compound; for viability, T/C: stronger effect = lower value
Source text: DNA G-quadruplex Stabilizer Agents in Combinations in Complex Spheroids
A high-throughput screen of multi-cell type tumor spheroids was designed to identify active combinations of DNA G-quadruplex stabilizer agents and targeted small molecules. Complex spheroids include a stromal component modeled by human endothelial cells (HUVEC) and fibroblasts modeled by human mesenchymal stem cells (MSCs). The concentration ranges selected for each drug and investigational agent were based upon clinically achievable concentrations if the clinical Cmax of the agent was known.
Compounds. The drugs and investigational agents: pidnarulex (CX-5461; NSC782164), APTO-253 (NSC789042), BRACO-19 (NSC847499), peposertib (NSC802822), ceralasertib (NSC780249), elimusertib (NSC800525), camonsertib (NSC841442), AZD-1390 (NSC803789), olaparib (NSC753686), talazoparib (NSC767125), ART-558 (NSC835418), sotorasib (NSC818433), MRTX-1133 (NSC836407), SN-38 (NSC673596), topotecan (NSC609699), etoposide (NSC141540), doxorubicin (NSC123127), gemcitabine (NSC613327), 5-fluorouracil (NSC19893), paclitaxel (NSC125973), vemurafenib (NSC761431), panobinostat (NSC761190), R-306465 (JNJ-16241199; NSC773264), adavosertib (NSC754352), TP-3654 (NSC805149), carboplatin (NSC241240), KSQ-4279 (NSC840948), and staurosporine (NSC755774) were obtained from the National Cancer Institute (NCI) Developmental Therapeutics Program Chemical Repository (34). The FDA-approved anticancer drug set is available from the NCI Developmental Therapeutics Program. […] The stock solutions were prepared in dimethyl sulfoxide (DMSO, Sigma-Aldrich, St. Louis, MO, cat. D2650) at 800-fold the tested concentration and stored at -70 degrees C prior to their use. All drugs and investigational agents were tested over a range starting from a high concentration at or near the clinical Cmax and decreasing in half-log increments. If the clinical Cmax for an agent had not been determined, the highest concentration tested was 10 microM.
2.3 Cell Culture. All cells were maintained in an incubator at 37 degrees C and 5% CO2 with 95% humidity. The PDC lines were cultured according to standard operating procedures established by the NCI PDMR. All PDCs were thawed and cultured in Matrigel-coated flasks prepared with a working solution of 1X Ham's F-12 nutrient mix, without supplementation (Invitrogen, cat. 11765054), 100 U/mL penicillin-streptomycin (Invitrogen, cat. 15140122), and 2.5% Matrigel (Corning Inc., cat. 354248) for the first three passages. The 857933-349-R-J2-PDC line was cultured in 6C/Colon 1B media, which includes advanced DMEM/F-12 (Thermo Fisher Scientific, cat. 12634028), 10 mM HEPES (Thermo Fisher Scientific, cat. 15630080), 1X GlutaMAX supplement (Thermo Fisher Scientific, cat. 35050061), 0.1 mg/mL primocin (InvivoGen, cat. ant-pm-2), 10% defined fetal bovine serum, heat inactivated (HyClone Laboratories Inc., cat. SH30070.03HI), 50% L-WRN conditioned media (ATCC, cat. CRL-3276), 1.25 mM N-Acetyl-L-cysteine (Sigma-Aldrich, cat. A9165), 10 mM nicotinamide (Sigma-Aldrich, cat. N0636), 1X B-27 supplement (Thermo Fisher Scientific, cat. 17504044), 1X N-2 supplement (Thermo Fisher Scientific, cat. 17502048), 10 microM Y-27632 dihydrochloride (Tocris Bioscience, cat. 1254), and 50 ng/mL human EGF recombinant protein (Thermo Fisher Scientific, cat. PHG0311). The 485176-168-R4-J1-PDC line was cultured in Panc media, which includes all 6C/Colon 1B media components plus 100 ng/mL human FGF-10 (Thermo Fisher Scientific, cat. 100-26), 500 nM SB-431542 (Selleckchem, cat. S1067), and gastrin (Tocris, cat. 3006).
[…]

[1] = second compound 0.0316 µM, first compound 0.0316 µM
[2] = second compound 0.0316 µM, first compound 0.316 µM
[3] = second compound 0.1 µM, first compound 0.0316 µM
[4] = second compound 0.1 µM, first compound 0.316 µM
[5] = second compound 0.316 µM, first compound 0.0316 µM
[6] = second compound 0.316 µM, first compound 0.316 µM
[7] = second compound 1 µM, first compound 0.0316 µM
[8] = second compound 1 µM, first compound 0.316 µM
[9] = second compound 3.16 µM, first compound 0.0316 µM
[10] = second compound 3.16 µM, first compound 0.316 µM
[11] = second compound 10 µM, first compound 0.0316 µM
[12] = second compound 10 µM, first compound 0.316 µM
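Further: spheroids exposed to agents for seven days before readout.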
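Wherever viability, T/C is given: percent of vehicle control viability where 100% = DMSO wells.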

Cn1ncnc1[C@H]1c2n[nH]c(=O)c3cc(F)cc(c23)N[C@@H]1c1ccc(F)cc1 + CN(C)c1ccc(Nc2c3ccc(NC(=O)CCN4CCCC4)cc3nc3cc(NC(=O)CCN4CCCC4)ccc23)cc1
IC50 (second compound 0.0316 µM): > 0.316 µM
IC50 (second compound 0.1 µM): > 0.316 µM
IC50 (second compound 0.316 µM): > 0.316 µM
IC50 (second compound 1 µM): > 0.316 µM
IC50 (second compound 3.16 µM): > 0.316 µM
IC50 (second compound 10 µM): > 0.316 µM
viability, T/C (second compound 0.0316 µM, first compound 0.000999 µM): 99%
viability, T/C (second compound 0.0316 µM, first compound 0.00316 µM): 96.7%
viability, T/C (second compound 0.0316 µM, first compound 0.00999 µM): 98.9%
viability, T/C [1]: 107%
viability, T/C (second compound 0.0316 µM, first compound 0.0999 µM): 78.5%
viability, T/C [2]: 84.9%
viability, T/C (second compound 0.1 µM, first compound 0.000999 µM): 101%
viability, T/C (second compound 0.1 µM, first compound 0.00316 µM): 112%
viability, T/C (second compound 0.1 µM, first compound 0.00999 µM): 112%
viability, T/C [3]: 93.1%
viability, T/C (second compound 0.1 µM, first compound 0.0999 µM): 96%
viability, T/C [4]: 88.3%
viability, T/C (second compound 0.316 µM, first compound 0.000999 µM): 103%
viability, T/C (second compound 0.316 µM, first compound 0.00316 µM): 96.2%
viability, T/C (second compound 0.316 µM, first compound 0.00999 µM): 97.3%
viability, T/C [5]: 86%
viability, T/C (second compound 0.316 µM, first compound 0.0999 µM): 97.2%
viability, T/C [6]: 82.1%
viability, T/C (second compound 1 µM, first compound 0.000999 µM): 101%
viability, T/C (second compound 1 µM, first compound 0.00316 µM): 75.7%
viability, T/C (second compound 1 µM, first compound 0.00999 µM): 85.8%
viability, T/C [7]: 73.4%
viability, T/C (second compound 1 µM, first compound 0.0999 µM): 76.7%
viability, T/C [8]: 76.2%
viability, T/C (second compound 3.16 µM, first compound 0.000999 µM): 86.4%
viability, T/C (second compound 3.16 µM, first compound 0.00316 µM): 79%
viability, T/C (second compound 3.16 µM, first compound 0.00999 µM): 76%
viability, T/C [9]: 76.5%
viability, T/C (second compound 3.16 µM, first compound 0.0999 µM): 81.6%
viability, T/C [10]: 75.6%
viability, T/C (second compound 10 µM, first compound 0.000999 µM): 67.3%
viability, T/C (second compound 10 µM, first compound 0.00316 µM): 85.9%
viability, T/C (second compound 10 µM, first compound 0.00999 µM): 78%
viability, T/C [11]: 74.2%
viability, T/C (second compound 10 µM, first compound 0.0999 µM): 75.8%
viability, T/C [12]: 77%

O=C(c1cc(Cc2n[nH]c(=O)c3ccccc23)ccc1F)N1CCN(C(=O)C2CC2)CC1 + CN(C)c1ccc(Nc2c3ccc(NC(=O)CCN4CCCC4)cc3nc3cc(NC(=O)CCN4CCCC4)ccc23)cc1
IC50 (second compound 0.0316 µM): > 10 µM
IC50 (second compound 0.1 µM): > 10 µM
IC50 (second compound 0.316 µM): > 10 µM
IC50 (second compound 1 µM): > 10 µM
IC50 (second compound 3.16 µM): > 10 µM
IC50 (second compound 10 µM): > 10 µM
viability, T/C [1]: 117%
viability, T/C (second compound 0.0316 µM, first compound 0.1 µM): 93.1%
viability, T/C [2]: 89.7%
viability, T/C (second compound 0.0316 µM, first compound 1 µM): 92.4%
viability, T/C (second compound 0.0316 µM, first compound 3.16 µM): 95.3%
viability, T/C (second compound 0.0316 µM, first compound 10 µM): 88.8%
viability, T/C [3]: 101%
viability, T/C (second compound 0.1 µM, first compound 0.1 µM): 100%
viability, T/C [4]: 103%
viability, T/C (second compound 0.1 µM, first compound 1 µM): 106%
viability, T/C (second compound 0.1 µM, first compound 3.16 µM): 85.3%
viability, T/C (second compound 0.1 µM, first compound 10 µM): 72.5%
viability, T/C [5]: 90.6%
viability, T/C (second compound 0.316 µM, first compound 0.1 µM): 88.1%
viability, T/C [6]: 105%
viability, T/C (second compound 0.316 µM, first compound 1 µM): 93.5%
viability, T/C (second compound 0.316 µM, first compound 3.16 µM): 97.1%
viability, T/C (second compound 0.316 µM, first compound 10 µM): 80%
viability, T/C [7]: 83.3%
viability, T/C (second compound 1 µM, first compound 0.1 µM): 80%
viability, T/C [8]: 87%
viability, T/C (second compound 1 µM, first compound 1 µM): 73.3%
viability, T/C (second compound 1 µM, first compound 3.16 µM): 76.7%
viability, T/C (second compound 1 µM, first compound 10 µM): 63.8%
viability, T/C [9]: 79.4%
viability, T/C (second compound 3.16 µM, first compound 0.1 µM): 65.2%
viability, T/C [10]: 84.4%
viability, T/C (second compound 3.16 µM, first compound 1 µM): 73.2%
viability, T/C (second compound 3.16 µM, first compound 3.16 µM): 70.5%
viability, T/C (second compound 3.16 µM, first compound 10 µM): 69.5%
viability, T/C [11]: 72.1%
viability, T/C (second compound 10 µM, first compound 0.1 µM): 74.2%
viability, T/C [12]: 69.9%
viability, T/C (second compound 10 µM, first compound 1 µM): 75.9%
viability, T/C (second compound 10 µM, first compound 3.16 µM): 90.1%
viability, T/C (second compound 10 µM, first compound 10 µM): 69.6%
